Experimental data taken from PubChem BioAssay (NCI).
“And” between values parts separate entries of the source, which are not always exact repeats. Equal entries are not always repeated.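 Growth conditions: 96-well plates. Treatment: test compound, 48 hours, 5 concentrations. Analysis: linear interpolation between bracketing concentrations; unreached endpoints set to highest concentration. The concentration for 50% growth inhibition is given as GI50. TGI marks complete inhibition of growth.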

Columns and labels:
Assay in all cases: NCI tumour cell line growth inhibition, 48 h
DLD-1 colon = system: DLD-1 colon
DMS 114 small cell lung = system: DMS 114 small cell lung
DMS 273 small cell lung = system: DMS 273 small cell lung
HCC-2998 colon = system: HCC-2998 colon
HL-60(TB) leukemia = system: HL-60(TB) leukemia
HOP-18 NSCLC = system: HOP-18 NSCLC
HS 578T breast = system: HS 578T breast
K-562 leukemia = system: K-562 leukemia
KM20L2 colon = system: KM20L2 colon
M14 melanoma = system: M14 melanoma
MDA-MB-231 breast = system: MDA-MB-231 breast
MDA-MB-435 = system: MDA-MB-435
MDA-N = system: MDA-N
OVCAR-4 ovarian = system: OVCAR-4 ovarian
OVCAR-8 ovarian = system: OVCAR-8 ovarian
P388 leukemia = system: P388 leukemia
SF-539 CNS = system: SF-539 CNS
SK-MEL-2 melanoma = system: SK-MEL-2 melanoma
SN12K1 renal = system: SN12K1 renal
SNB-78 CNS = system: SNB-78 CNS
A498 renal = system: A498 renal
A549 NSCLC = system: A549 NSCLC
CAKI-1 renal = system: CAKI-1 renal
CCRF-CEM leukemia = system: CCRF-CEM leukemia
COLO 205 colon = system: COLO 205 colon
EKVX NSCLC = system: EKVX NSCLC
HCT-116 colon = system: HCT-116 colon
HCT-15 colon = system: HCT-15 colon
HOP-62 NSCLC = system: HOP-62 NSCLC
HOP-92 NSCLC = system: HOP-92 NSCLC
HT29 colon = system: HT29 colon
IGROV1 ovarian = system: IGROV1 ovarian
KM12 colon = system: KM12 colon
LOX IMVI melanoma = system: LOX IMVI melanoma
M19-MEL melanoma = system: M19-MEL melanoma
MALME-3M melanoma = system: MALME-3M melanoma
MCF7 breast = system: MCF7 breast
MOLT-4 leukemia = system: MOLT-4 leukemia
NCI-H226 lung = system: NCI-H226 lung
NCI-H23 lung = system: NCI-H23 lung
NCI-H460 lung = system: NCI-H460 lung
NCI-H522 lung = system: NCI-H522 lung
NCI/ADR-RES ovarian = system: NCI/ADR-RES ovarian
OVCAR-3 ovarian = system: OVCAR-3 ovarian
OVCAR-5 ovarian = system: OVCAR-5 ovarian
P388/ADR leukemia = system: P388/ADR leukemia
RPMI-8226 leukemia = system: RPMI-8226 leukemia
SF-268 CNS = system: SF-268 CNS
SF-295 CNS = system: SF-295 CNS
SK-MEL-5 melanoma = system: SK-MEL-5 melanoma
SK-OV-3 ovarian = system: SK-OV-3 ovarian
SN12C renal = system: SN12C renal
SNB-19 CNS = system: SNB-19 CNS
SNB-75 CNS = system: SNB-75 CNS
SW-620 colon = system: SW-620 colon
U251 CNS = system: U251 CNS
UACC-257 melanoma = system: UACC-257 melanoma
UACC-62 melanoma = system: UACC-62 melanoma
UO-31 renal = system: UO-31 renal
XF 498 CNS = system: XF 498 CNS
RXF 393 renal = system: RXF 393 renal
SK-MEL-28 melanoma = system: SK-MEL-28 melanoma

CO[C@H]1C[C@@H]2CC[C@@H](C)[C@@](O)(O2)C(=O)C(=O)N2CCCC[C@H]2C(=O)O[C@H]([C@H](C)C[C@@H]2CC[C@@H](O)[C@H](OC)C2)CC(=O)[C@H](C)C=C(C)[C@@H](O)[C@@H](OC)C(=O)[C@H](C)C[C@H](C)/C=C/C=C/C=C1C
TGI (DLD-1 colon): 25.2 µM | TGI (DMS 114 small cell lung): 31.5 µM | TGI (DMS 273 small cell lung): 33.7 µM | TGI (HCC-2998 colon): 13.8 µM and 26.6 µM and 47.9 µM | TGI (HL-60(TB) leukemia): 24.2 µM and 144 µM | TGI (HOP-18 NSCLC): 133 µM | TGI (HS 578T breast): 13.7 µM and 86.4 µM | TGI (K-562 leukemia): 40.5 µM and 365 µM | TGI (KM20L2 colon): 41.5 µM | TGI (M14 melanoma): 27.2 µM and 144 µM | TGI (MDA-MB-231 breast): 26.3 µM and 170 µM | TGI (MDA-MB-435): 25.9 µM and 126 µM | GI50 (MDA-N): 79.1 µM | TGI (OVCAR-4 ovarian): 6.85 µM and 27 µM | TGI (OVCAR-8 ovarian): 27.7 µM and 62 µM and 243 µM | TGI (P388 leukemia): 27.8 µM | TGI (SF-539 CNS): 14.6 µM and 22.4 µM and 82.9 µM | TGI (SK-MEL-2 melanoma): 17.6 µM and 34.9 µM and 67.2 µM | TGI (SN12K1 renal): 20.9 µM | TGI (SNB-78 CNS): 16.9 µM

CC1[C@@H]2CC=C3C4CCC5Cc6nc7c(nc6C[C@@]5(C)C4CC(=O)[C@]32CO[C@@]1(O)C(O)CC(C)(C)O)CC1CCC2C3=C[C@H]4O[C@@]5(O[C@@](C)(CO)C[C@@H]5O)C(C)[C@@]4(O)[C@]3(C)[C@@H](O)CC2[C@]1(C)C7 (stereo partly specified)
TGI (A498 renal): 0.0112 µM | TGI (A549 NSCLC): 0.383 µM | TGI (CAKI-1 renal): 0.417 µM | TGI (CCRF-CEM leukemia): 0.0294 µM | TGI (COLO 205 colon): 0.0608 µM | TGI (DLD-1 colon): 1.15 µM | TGI (DMS 114 small cell lung): 0.0471 µM | TGI (DMS 273 small cell lung): 0.00174 µM | TGI (EKVX NSCLC): 0.0479 µM | TGI (HCC-2998 colon): 0.832 µM | TGI (HCT-116 colon): 0.501 µM | TGI (HCT-15 colon): 0.33 µM | TGI (HL-60(TB) leukemia): 0.0581 µM | TGI (HOP-18 NSCLC): 0.739 µM | TGI (HOP-62 NSCLC): 0.00248 µM | TGI (HOP-92 NSCLC): 1.12 µM | TGI (HT29 colon): 0.0484 µM | TGI (IGROV1 ovarian): 0.736 µM | TGI (K-562 leukemia): 0.434 µM | TGI (KM12 colon): 0.571 µM | TGI (KM20L2 colon): 0.137 µM | TGI (LOX IMVI melanoma): 0.0914 µM | TGI (M19-MEL melanoma): 0.729 µM | TGI (MALME-3M melanoma): 0.0911 µM | TGI (MCF7 breast): 0.192 µM | TGI (MOLT-4 leukemia): 0.376 µM | TGI (NCI-H226 lung): 0.376 µM | TGI (NCI-H23 lung): 0.0272 µM | TGI (NCI-H460 lung): 0.0364 µM | TGI (NCI-H522 lung): 0.124 µM | TGI (NCI/ADR-RES ovarian): 2.74 µM | TGI (OVCAR-3 ovarian): 2.36 µM | TGI (OVCAR-4 ovarian): 1.29 µM | TGI (OVCAR-5 ovarian): 0.0628 µM | TGI (OVCAR-8 ovarian): 3.6 µM | TGI (P388/ADR leukemia): 0.0891 µM | TGI (RPMI-8226 leukemia): 0.045 µM | TGI (SF-268 CNS): 0.124 µM | TGI (SF-295 CNS): 0.000713 µM | TGI (SF-539 CNS): 0.0423 µM | TGI (SK-MEL-2 melanoma): 0.0891 µM | TGI (SK-MEL-5 melanoma): 0.0469 µM | TGI (SK-OV-3 ovarian): 0.0279 µM | TGI (SN12C renal): 2.9 µM | TGI (SN12K1 renal): 0.406 µM | TGI (SNB-19 CNS): 0.329 µM | TGI (SNB-75 CNS): 0.00313 µM | TGI (SNB-78 CNS): 0.483 µM | TGI (SW-620 colon): 0.0564 µM | TGI (U251 CNS): 0.0345 µM | TGI (UACC-257 melanoma): 0.112 µM | TGI (UACC-62 melanoma): 0.0108 µM | TGI (UO-31 renal): 0.0836 µM | TGI (XF 498 CNS): 0.0502 µM

O=C1c2ccccc2OCC1/C=N/O (stereo unspecified)
TGI (A498 renal): > 100 µM | TGI (A549 NSCLC): > 100 µM | TGI (CCRF-CEM leukemia): > 100 µM | TGI (DLD-1 colon): > 100 µM | TGI (DMS 114 small cell lung): 98.9 µM | TGI (DMS 273 small cell lung): > 100 µM | TGI (EKVX NSCLC): > 100 µM | TGI (HCC-2998 colon): > 100 µM | TGI (HCT-116 colon): > 100 µM | TGI (HCT-15 colon): > 100 µM | TGI (HL-60(TB) leukemia): > 100 µM | TGI (HOP-18 NSCLC): > 100 µM | TGI (HOP-62 NSCLC): > 100 µM | TGI (HOP-92 NSCLC): > 96 µM | TGI (HT29 colon): > 100 µM | TGI (IGROV1 ovarian): > 100 µM | TGI (K-562 leukemia): > 100 µM | TGI (KM12 colon): > 100 µM | TGI (LOX IMVI melanoma): > 100 µM | TGI (M19-MEL melanoma): > 100 µM | TGI (MALME-3M melanoma): > 100 µM | TGI (MCF7 breast): > 100 µM | TGI (MOLT-4 leukemia): > 100 µM | TGI (NCI-H226 lung): > 100 µM | TGI (NCI-H23 lung): > 100 µM | TGI (NCI-H460 lung): > 100 µM | TGI (NCI-H522 lung): 62.1 µM | TGI (NCI/ADR-RES ovarian): > 100 µM | TGI (OVCAR-3 ovarian): > 100 µM | TGI (OVCAR-4 ovarian): > 100 µM | TGI (OVCAR-5 ovarian): > 100 µM | TGI (OVCAR-8 ovarian): > 100 µM | TGI (P388 leukemia): > 63.7 µM | TGI (RPMI-8226 leukemia): > 100 µM | TGI (RXF 393 renal): 76.4 µM | TGI (SF-268 CNS): > 100 µM | TGI (SF-295 CNS): > 100 µM | TGI (SF-539 CNS): > 100 µM | TGI (SK-MEL-2 melanoma): > 100 µM | TGI (SK-MEL-28 melanoma): > 100 µM | TGI (SK-MEL-5 melanoma): > 100 µM | TGI (SK-OV-3 ovarian): > 100 µM | TGI (SN12C renal): > 100 µM | TGI (SN12K1 renal): > 100 µM | TGI (SNB-75 CNS): > 100 µM | TGI (SNB-78 CNS): > 100 µM | TGI (SW-620 colon): > 100 µM | TGI (U251 CNS): > 100 µM | TGI (UACC-257 melanoma): > 100 µM | TGI (UACC-62 melanoma): > 100 µM | TGI (UO-31 renal): > 100 µM | TGI (XF 498 CNS): > 100 µM

O=c1cc(O)ccn1C1C=C(CO)C(O)C1O (stereo unspecified)
TGI (A549 NSCLC): > 625 µM | TGI (CAKI-1 renal): > 625 µM | TGI (CCRF-CEM leukemia): > 625 µM | TGI (DLD-1 colon): > 625 µM | TGI (DMS 114 small cell lung): > 625 µM | TGI (DMS 273 small cell lung): > 625 µM | TGI (HCC-2998 colon): > 625 µM | TGI (HCT-116 colon): > 625 µM | TGI (HCT-15 colon): > 625 µM | TGI (HL-60(TB) leukemia): > 625 µM | TGI (HOP-18 NSCLC): > 625 µM | TGI (HOP-62 NSCLC): > 625 µM | TGI (HOP-92 NSCLC): > 625 µM | TGI (HT29 colon): > 625 µM | TGI (IGROV1 ovarian): > 625 µM | TGI (KM12 colon): > 625 µM | TGI (KM20L2 colon): > 625 µM | TGI (LOX IMVI melanoma): > 625 µM | TGI (MALME-3M melanoma): > 625 µM | TGI (MCF7 breast): > 625 µM | TGI (NCI-H226 lung): > 625 µM | TGI (NCI-H460 lung): > 625 µM | TGI (NCI/ADR-RES ovarian): > 625 µM | TGI (OVCAR-3 ovarian): > 625 µM | TGI (OVCAR-4 ovarian): > 625 µM | TGI (OVCAR-8 ovarian): > 625 µM | TGI (RPMI-8226 leukemia): > 625 µM | TGI (RXF 393 renal): > 625 µM | TGI (SF-268 CNS): > 625 µM | TGI (SF-295 CNS): > 625 µM | TGI (SF-539 CNS): > 625 µM | TGI (SK-MEL-2 melanoma): > 625 µM | TGI (SK-MEL-28 melanoma): > 625 µM | TGI (SK-MEL-5 melanoma): > 625 µM | TGI (SK-OV-3 ovarian): > 625 µM | TGI (SN12C renal): > 625 µM | TGI (SN12K1 renal): > 625 µM | TGI (SNB-19 CNS): > 625 µM | TGI (SNB-75 CNS): > 625 µM | TGI (SNB-78 CNS): > 625 µM | TGI (SW-620 colon): > 625 µM | TGI (U251 CNS): > 625 µM | TGI (UACC-62 melanoma): > 625 µM | TGI (UO-31 renal): > 625 µM | TGI (XF 498 CNS): < 0.0625 µM
